Experimental data from patent publication US9834558B2, “Substituted bridged urea analogs as sirtuin modulators” (GLAXOSMITHKLINE LLC, priority 2013, dated 2017).
Where two headings read alike, the source gives them in different places.

Target: T1, SIRT1 (Homo sapiens, UniProt Q96EB6)
T1 sequence (Q96EB6 1-747): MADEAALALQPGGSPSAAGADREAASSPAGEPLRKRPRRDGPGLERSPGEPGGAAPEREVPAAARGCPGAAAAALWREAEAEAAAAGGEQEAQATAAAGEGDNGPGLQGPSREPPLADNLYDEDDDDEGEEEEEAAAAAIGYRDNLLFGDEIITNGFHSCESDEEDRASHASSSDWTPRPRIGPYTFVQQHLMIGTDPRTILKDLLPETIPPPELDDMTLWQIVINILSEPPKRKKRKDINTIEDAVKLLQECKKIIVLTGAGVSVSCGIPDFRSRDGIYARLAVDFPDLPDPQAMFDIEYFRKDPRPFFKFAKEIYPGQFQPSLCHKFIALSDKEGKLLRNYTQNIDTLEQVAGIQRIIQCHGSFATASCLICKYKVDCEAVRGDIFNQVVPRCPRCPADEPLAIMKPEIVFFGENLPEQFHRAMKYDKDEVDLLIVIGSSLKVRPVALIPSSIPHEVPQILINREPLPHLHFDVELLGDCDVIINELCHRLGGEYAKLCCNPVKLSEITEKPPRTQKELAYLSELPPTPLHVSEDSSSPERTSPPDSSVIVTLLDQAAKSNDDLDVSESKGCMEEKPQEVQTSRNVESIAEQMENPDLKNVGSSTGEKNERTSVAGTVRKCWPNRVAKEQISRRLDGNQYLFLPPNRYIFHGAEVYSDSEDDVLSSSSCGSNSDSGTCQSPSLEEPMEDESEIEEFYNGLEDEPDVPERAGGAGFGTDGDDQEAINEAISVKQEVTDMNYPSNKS
Assay: Trp mass spectrometry assay of SIRT1 activation
Type: biochemical
Settings: for TRP Activity (EC1.5): EC1.5 = concentration that results in 150% activation of SIRT1
Outline: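 N-terminal His-tagged human SIRT1 (10 nM, E. coli BL21(DE3)) with 0.5 μM Ac-RHKK(Ac)W-NH2 peptide and 120 μM βNAD+, 25 min at 25 °C in HEPES pH 7.5, formic acid stop. OAADPR or deacetylated peptide quantified by mass spectrometry; EC1.5 (50% activity increase over control) and Percent Maximum Activation reported.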

[1] = Trp peptide substrate, concentration giving 150% activation of SIRT1
[2] = concentration giving 150% activation of SIRT1, Trp peptide substrate
[3] = Trp mass spectrometry assay, EC1.5 = concentration of test compound that results in 150% activation of SIRT1
[4] = Trp mass spectrometry assay, percent maximum fold activation of SIRT1, read-out: Tryp % Fold Act
[5] = Trp peptide assay, maximum activity relative to control (100%), read-out: TRP MAX RESP (percent maximum fold activation)
[6] = Trp mass spectrometry assay, concentration of test compound giving 150% activation of SIRT1

COc1ccc(C)nc1NC(=O)N1c2nc(-c3cccc(C(F)(F)F)c3)ccc2N2CC[C@H]1C2 [Example 77]
Tryp AVG EC1.5 (μM) [1]: B (B (EC1.5 1-25 μM))

Cc1cncc(NC(=O)N2c3nc(-c4cccc(Cl)c4)ccc3N3C[C@@H](O)[C@H]2C3)c1 [Example 676]
Tryp AVG EC1.5 (μM) [2]: A (A (EC1.5<1 μM))

O=C(Nc1cncc(F)c1)N1c2nc(-c3cccc(Cl)c3)ccc2N2CCC1CC2 [Example 521]
Tryp AVG EC1.5 (μM) [3]: B (B (EC1.5 1-25 μM))

O=C(CCCC[C@@H]1SC[C@@H]2NC(=O)N[C@@H]21)NCCCCCC(=O)NCc1cn(-c2cccc(NC(=O)N3c4nc(-c5cccc(C(F)(F)F)c5)ccc4N4CC[C@H]3C4)c2)nn1 [Example 607]
Tryp AVG EC1.5 (μM) [3]: A (A (EC1.5<1 μM)) | Emax [4]: > 150%

Cc1c(-c2ccc3c(n2)C(C(=O)Nc2cnccn2)[C@H]2CCN3C2)cnn1C (stereo partly shown) [Example 532]
Tryp AVG EC1.5 (μM) [3]: B (B (EC1.5 1-25 μM)) | Emax [4]: > 150%

O=C(Nc1cccc(-c2cccnc2)n1)N1c2nc(-c3cccc(C(F)(F)F)c3)ccc2N2CC[C@H]1C2 [Example 655]
Tryp AVG EC1.5 (μM) [2]: A (A (EC1.5<1 μM))

Cc1cc(C)c(-c2ccc3c(n2)N(C(=O)Nc2cccnc2)[C@H]2CCN3C2)cn1 [(9S)-5-(4,6-dimethylpyridin-3-yl)-N-(pyridin-3-yl)-1,6,8-triazatricyclo[7.2.1.0 {2,7}]dodeca-2(7),3,5-triene-8-carboxamide]
TRP Activity (EC1.5) (Trp peptide assay): B (B (EC1.5 1-25 μM)) | Emax [5]: > 150%

O=C(Nc1cnccn1)N1c2nc(-c3cccnc3)ccc2N2CCC[C@H]1C2 [Example 454]
Tryp AVG EC1.5 (μM) [3]: B (B (EC1.5 1-25 μM))

NCCCCCC(=O)NCc1cccc(NC(=O)N2c3nc(-c4cccc(C(F)(F)F)c4)ccc3N3CCC[C@H]2C3)c1 [Example 756]
Tryp AVG EC1.5 (μM) [2]: A (A (EC1.5<1 μM))

O=C(Nc1cnccn1)N1c2nc(-c3cc(C(F)(F)F)cc(C(F)(F)F)c3)ccc2N2CC[C@H]1C2 [Example 363]
Tryp AVG EC1.5 (μM) [6]: B (B (EC1.5 1-25 μM)) | Emax [4]: > 150%

CCc1cncc(NC(=O)N2c3nc(-c4ccnc(C)c4)ccc3N3CC[C@H]2C3)n1 [(9S)-N-(6-ethylpyrazin-2-yl)-5-(2-methylpyridin-4-yl)-1,6,8-triazatricyclo[7.2.1.0 {2,7}]dodeca-2(7),3,5-triene-8-carboxamide]
TRP Activity (EC1.5) (Trp peptide assay): A (A (EC1.5<1 μM)) | Emax [5]: > 150%

Cc1cc(-c2ccc3c(n2)N(C(=O)Nc2cccnc2)[C@H]2CCN3C2)ccn1 [Example 498]
Tryp AVG EC1.5 (μM) [3]: A (A (EC1.5<1 μM))

NCCCc1cc(NC(=O)N2c3nc(-c4cccc(C(F)(F)F)c4)ccc3N3CCC[C@H]2C3)cc(-c2cnco2)c1 [Example 770]
Tryp AVG EC1.5 (μM) [2]: A (A (EC1.5<1 μM)) | Emax (percent maximum fold activation of SIRT1, Trp peptide substrate, read-out: Tryp % Fold Act): > 150%

O=C(Nc1nncs1)N1c2nc(-c3cccc(C(F)(F)F)c3)ccc2N2CC[C@H]1C2 [Example 646]
Tryp AVG EC1.5 (μM) [2]: A (A (EC1.5<1 μM))

O=C(NCCc1ccncc1)N1c2nc(-c3cccc(C(F)(F)F)c3)ccc2N2CC[C@H]1C2 [Example 613]
Tryp AVG EC1.5 (μM) [3]: B (B (EC1.5 1-25 μM))

O=C(Nc1cccnc1)N1c2nc(-c3cc[nH]n3)ccc2N2CC[C@H]1C2 [Example 493]
Tryp AVG EC1.5 (μM) [3]: B (B (EC1.5 1-25 μM))

CCc1nnc(NC(=O)N2c3nc(-c4cccc(C(F)(F)F)c4)ccc3N3CC[C@H]2C3)s1 [Example 647]
Tryp AVG EC1.5 (μM) [2]: A (A (EC1.5<1 μM))

NCCCc1ccc(NC(=O)N2c3nc(-c4cccc(C(F)(F)F)c4)ccc3N3CCC[C@H]2C3)cc1-c1cnco1 [Example 767]
Tryp AVG EC1.5 (μM) [2]: A (A (EC1.5<1 μM))

O=C(Nc1cccc(C(F)(F)F)c1)N1c2nc(-c3cccc(C(F)(F)F)c3)ccc2N2CC[C@H]1C2 [Example 617]
Tryp AVG EC1.5 (μM) [3]: A (A (EC1.5<1 μM))

C#Cc1ccc(NC(=O)N2c3nc(-c4cccc(C5(C(F)(F)F)N=N5)c4)ccc3N3CC[C@H]2C3)nc1 [Example 803]
Tryp AVG EC1.5 (μM) [2]: A (A (EC1.5<1 μM))

O=C(Nc1cncc(F)c1)N1c2nc(-c3ccnc(C(F)(F)F)c3)ccc2N2CCC[C@H]1C2 [(9S)-N-(5-fluoropyridin-3-yl)-5-[2-(trifluoromethyl)pyridin-4-yl]-1,6,8-triazatricyclo[7.3.1.0 {2,7}]trideca-2(7),3,5-triene-8-carboxamide]
TRP Activity (EC1.5) (Trp peptide assay): A (A (EC1.5<1 μM)) | Emax [5]: > 150%

NC(=O)CN1CCC(c2cccc(NC(=O)N3c4nc(-c5cccc(C(F)(F)F)c5)ccc4N4CC[C@H]3C4)c2)C1 (stereo partly shown) [Example 594]
Tryp AVG EC1.5 (μM) [3]: A (A (EC1.5<1 μM))

Cc1cc(-c2ccc3c(n2)N(C(=O)Nc2cnc(OC[C@@H](O)CO)cn2)[C@H]2CCN3C2)ccn1 [Example 561]
Tryp AVG EC1.5 (μM) [3]: B (B (EC1.5 1-25 μM))

COc1cc(NC(=O)N2c3nc(-c4ccnc(N5CCC(F)(F)C5)c4)ccc3N3CC[C@H]2C3)ncn1 [Example 390]
Tryp AVG EC1.5 (μM) [6]: B (B (EC1.5 1-25 μM))

O=C(Nc1ccncn1)N1c2nc(-c3cncc(C(F)(F)F)c3)ccc2N2C[C@@H](O)[C@H]1C2 [Example 700]
Tryp AVG EC1.5 (μM) [2]: B (B (EC1.5 1-25 μM))

COCC(C)NC(=O)c1ccc2c(n1)N(C(=O)Nc1ccccn1)[C@H]1CCN2C1 (stereo partly drawn) [(9S)-5-N-(1-methoxypropan-2-yl)-8-N-(pyridin-2-yl)-1,6,8-triazatricyclo[7.2.1.0^{2,7}]dodeca-2(7),3,5-triene-5,8-dicarboxamide]
TRP Activity (EC1.5) (Trp peptide assay): B (B (EC1.5 1-25 μM)) | Emax [5]: > 150%

Cc1ccc(-c2ccc3c(n2)N(C(=O)Nc2cncc(C)n2)[C@H]2CCN3C2)cn1 [(9S)-N-(6-methylpyrazin-2-yl)-5-(6-methylpyridin-3-yl)-1,6,8-triazatricyclo[7.2.1.0 {2,7}]dodeca-2,4,6-triene-8-carboxamide]
TRP Activity (EC1.5) (Trp peptide assay): B (B (EC1.5 1-25 μM)) | Emax [5]: > 150%

O=C(Nc1cccnc1)N1c2nc(-c3cnn(-c4ccccc4)c3)ccc2N2CC[C@H]1C2 [Example 549]
Tryp AVG EC1.5 (μM) [3]: B (B (EC1.5 1-25 μM))

Cc1[nH]ncc1-c1ccc2c(n1)N(C(=O)Nc1cccnc1)[C@H]1CCN2C1 [Example 490]
Tryp AVG EC1.5 (μM) [3]: B (B (EC1.5 1-25 μM))

O=C(Nc1ccccn1)N1c2nc(N3CCC[C@@H](C(F)(F)F)C3)ccc2N2CC[C@H]1C2 [(9S)-N-(pyridin-2-yl)-5-[(3R)-3-(trifluoromethyl)piperidin-1-yl]-1,6,8-triazatricyclo[7.2.1.0 {2,7}]dodeca-2,4,6-triene-8-carboxamide]
TRP Activity (EC1.5) (Trp peptide assay): B (B (EC1.5 1-25 μM)) | Emax [5]: > 150%

Cc1ccc(-c2cc(C)c3c(n2)N(C(=O)Nc2ccccn2)[C@H]2CCN3C2)cn1 [(9S)-3-methyl-5-(6-methylpyridin-3-yl)-N-(pyridin-2-yl)-1,6,8-triazatricyclo[7.2.1.0^{2,7}]dodeca-2,4,6-triene-8-carboxamide]
TRP Activity (EC1.5) (Trp peptide assay): B (B (EC1.5 1-25 μM)) | Emax [5]: > 150%

CCn1ncc2c(NC(=O)N3c4nc(-c5cccc(C(F)(F)F)c5)ccc4N4CC[C@H]3C4)cccc21 [81 (9)]
Tryp AVG EC1.5 (μM) [1]: A (A (EC1.5<1 μM))

Cc1cc(-c2ccc3c(n2)N(C(=O)Nc2c[nH]nn2)[C@H]2CCN3C2)ccn1 [(9S)-5-(2-methylpyridin-4-yl)-N-(1H-1,2,3-triazol-4-yl)-1,6,8-triazatricyclo[7.2.1.0 {2,7}]dodeca-2(7),3,5-triene-8-carboxamide]
TRP Activity (EC1.5) (Trp peptide assay): B (B (EC1.5 1-25 μM)) | Emax [5]: > 150%

Cc1nc(NC(=O)N2c3nc(-c4cccc(Cl)c4)ccc3N3C[C@@H](O)[C@H]2C3)sc1C [Example 688]
Tryp AVG EC1.5 (μM) [2]: B (B (EC1.5 1-25 μM))

O=C(Nc1ccccn1)N1c2nc(-c3ccc4nonc4c3)ccc2N2CC[C@H]1C2 [Example 372]
Tryp AVG EC1.5 (μM) [6]: B (B (EC1.5 1-25 μM))

O=C(Nc1ccncn1)N1c2nc(-c3cccc(Cl)c3)ccc2N2C[C@@H](O)[C@H]1C2 [Example 684]
Tryp AVG EC1.5 (μM) [2]: B (B (EC1.5 1-25 μM))

Cc1ccncc1-c1ccc2c(n1)N(C(=O)Nc1cccnc1)[C@H]1CCCN2C1 [Example 516]
Tryp AVG EC1.5 (μM) [3]: B (B (EC1.5 1-25 μM))

CN1CCCN(c2ccc3c(n2)N(C(=O)Nc2ccncn2)[C@H]2CCCN3C2)CC1 [Example 484]
Tryp AVG EC1.5 (μM) [3]: C (C (EC1.5>25 μM))

CC(C)N1CCCN(c2ccc3c(n2)N(C(=O)Nc2ccncn2)[C@H]2CCCN3C2)CC1 [Example 447]
Tryp AVG EC1.5 (μM) [3]: C (C (EC1.5>25 μM))

COc1cc(NC(=O)N2c3nc(-c4cccc(Cl)c4)ccc3N3CCC2CC3)ncn1 [Example 522]
Tryp AVG EC1.5 (μM) [3]: B (B (EC1.5 1-25 μM))
